Experimental data published in patent publication US9399032B2, “Methods and compositions for treating degenerative and ischemic disorders” (The General Hospital Corporation, priority 2009, dated 2016).
Counter-ions that a name gives are not always drawn.

Experiments:
Type in all cases: cell-based
AMPK = assay: Western blot detection of AMPK phosphorylation; details: C2C12 myotubes, 24 hours of treatment
Method: The ability of meclizine, S-meclizine and R-meclizine to activate AMPK in C2C12 myotubes was also evaluated using Western blot detection of AMPK phosphorylation in C2C12 myotubes following 24 hours of treatment with R-meclizine (R-Mec), S-meclizine (S-Mec) and the racemic mixture (Rac-Mec).

293 cells = assay: Uncoupler (CCCP)-stimulated respiration in intact cells; details: 25 μM, 6 hours pre-treatment
Method: 293 cells pre-treated with 25 μM meclizine for 6 hours fail to stimulate oxygen consumption to the same extent as DMSO treated controls after treatment with CCCP. Data expressed as mean±SD (n=3; *p value<0.01).
The upregulation of phosphoethanolamine was confirmed by orthogonal chromatography, as well as via ^31P-NMR. […] Previous studies have shown that phosphoethanolamine can be elevated in tumor cells, and that ethanolamine and PEA can directly silence mitochondrial OXPHOS. Zhu et al., J Lipid Res 49: 2197 (2008); and Modica-Napolitano et al., Biol Psychiatry 55:273 (2004). To test the effect of phosphoethanolamine (PEA) on mitochondrial respiration, mitochondria were incubated with varying concentration of phosphoethanolamine for ˜1 min prior to the addition of 2.5 mM glutamate and 2.5 mM malate followed by the addition of 1 μM CCCP. […] See FIGS. 16A and 16B, respectively.

GLS expressing 293 cells = assay: OCR in 293 cells with forced GLS expression; details: 50 μM
Method: FIG. 14B presents exemplary data showing OCR measurements on FACS sorted control (LacZ) or GLS expressing cells following DMSO or 50 μM meclizine addition at time 0 min (n=4).
Glutaminase full length cDNA (Open Biosystems, Accession #BCO38507) was amplified using proof-reading TAQ polymerase (Accuprime, Invitrogen) with primers which included attb1 and attb2 sites for subsequent subcloning into pDONR 221 vector (Invitrogen). Partial Kozak sequence was included in the 5′ primer and stop codon was eliminated in the 3′ primer. The sequences of forward (F) and reverse primers (R) are—5′-GGGGACAAGTTTGTACAAAAAAGCAGGCTCCACCATGATGCGGCTGCGAGGCTC-3′ (SEQ ID NO: 2); and 5′-GGGGACCACTTTGTACAAGAAAGCTGGGTCCAACAATCCATCAAGATTCT-3′ (SEQ ID NO: 3), respectively. Resulting PCR fragment was cloned into Gateway entry vector pDONR 221 (Invitrogen) with BP clonase using STBL2 E. coli competent cells (Invitrogen). Subsequently, it was subcloned into destination vector pcDNA6.2-EMGFP-DEST with LR clonase and was sequenced verified. The 293 cells were transfected with the pcDNA6.2-GLS-GFP and the control vector pcDNA6.2-LacZ-GFP using Fugene (Roche) reagent. GLS expression was confirmed by Western blot using anti-GLS antibody. FACS sorted transfected cells were subjected to meclizine treatment followed by OCR and ECAR measurements.

## Cc1cccc(CN2CCN(C(c3ccccc3)c3ccc(Cl)cc3)CC2)c1 (racemic) [Meclizine, meclizine hydrochloride]
AMPK
  AMPK activation (phosphorylation): activate AMPK
293 cells
  uncoupler-stimulated respiration in intact cells: blunts uncoupler-stimulated respiration
GLS expressing 293 cells
  oxygen consumption with constitutive GLS expression: continued to suppress oxygen consumption
